# Measurements: ChEMBL document CHEMBL1153966, “Synthesis, cytotoxicity, and haemolytic activity of chacotrioside lupane-type neosaponins and their germanicane-type rearrangement products” (Bioorg Med Chem Lett, 2009)
# Legend:
# [1] = Toxicity in sheep erythrocytes assessed as induction of hemolysis; type: cell-based, Ovis aries, Erythrocyte; settings: read-out: HD50 (the source's name)
# MCF7 = assay: Cytotoxicity against human MCF7 cells by resazurin reduction test; type: functional, cell-based
# PC-3 = assay: Cytotoxicity against human PC3 cells by resazurin reduction test; type: functional, cell-based
# DLD-1 = assay: Cytotoxicity against human DLD1 cells by resazurin reduction test; type: functional, cell-based
# A549 = assay: Cytotoxicity against human A549 cells by resazurin reduction test; type: functional, cell-based
# [2] = Cytotoxicity against human WS1 cells by resazurin reduction test; type: cell-based
compound,measurement,setting,value
C=C(C)[C@@H]1CC[C@]2(C)CC[C@]3(C)[C@H](CC[C@@H]4[C@@]5(C)CC[C@H](O)C(C)(C)[C@@H]5CC[C@]43C)[C@@H]12 [LUPEOL],HC50,[1],> 100 µM
same,IC50,MCF7,> 50 µM
same,IC50,PC-3,> 50 µM
same,IC50,DLD-1,> 50 µM
same,IC50,A549,> 50 µM
same,IC50,[2],> 50 µM
C=C(C)[C@@H]1CC[C@]2(C(=O)O)CC[C@]3(C)[C@H](CC[C@@H]4[C@@]5(C)CC[C@H](O)C(C)(C)[C@@H]5CC[C@]43C)[C@@H]12 [BETULINIC ACID],HC50,[1],> 100 µM
same,IC50,[2],12 µM
CC1(C)CC[C@]23CC[C@]4(C)[C@H](CC[C@@H]5[C@@]6(C)CC[C@H](O)C(C)(C)[C@@H]6CC[C@]54C)[C@H]2[C@H]1OC3=O,HC50,[1],> 100 µM
same,IC50,MCF7,> 50 µM
same,IC50,PC-3,> 50 µM
same,IC50,DLD-1,> 50 µM
same,IC50,A549,> 50 µM
same,IC50,[2],> 50 µM
C=C(C)[C@@H]1CC[C@]2(CO)CC[C@]3(C)[C@H](CC[C@@H]4[C@@]5(C)CC[C@H](O)C(C)(C)[C@@H]5CC[C@]43C)[C@@H]12 [BETULIN],HC50,[1],> 100 µM
same,IC50,[2],3.6 µM
C=C(C)[C@@H]1CC[C@]2(C(=O)O)CC[C@]3(C)[C@H](CC[C@@H]4[C@@]5(C)CC[C@H](O[C@@H]6O[C@H](CO)[C@@H](O[C@@H]7O[C@@H](C)[C@H](O)[C@@H](O)[C@H]7O)[C@H](O)[C@H]6O[C@@H]6O[C@@H](C)[C@H](O)[C@@H](O)[C@H]6O)C(C)(C)[C@@H]5CC[C@]43C)[C@@H]12,HC50,[1],> 100 µM
same,IC50,MCF7,> 50 µM
same,IC50,PC-3,> 50 µM
same,IC50,DLD-1,> 50 µM
same,IC50,A549,> 50 µM
same,IC50,[2],> 50 µM
C=C(C)[C@@H]1CC[C@]2(CO)CC[C@]3(C)[C@H](CC[C@@H]4[C@@]5(C)CC[C@H](O[C@@H]6O[C@H](CO)[C@@H](O[C@@H]7O[C@@H](C)[C@H](O)[C@@H](O)[C@H]7O)[C@H](O)[C@H]6O[C@@H]6O[C@@H](C)[C@H](O)[C@@H](O)[C@H]6O)C(C)(C)[C@@H]5CC[C@]43C)[C@@H]12,HC50,[1],> 100 µM
same,IC50,MCF7,> 50 µM
same,IC50,PC-3,> 50 µM
same,IC50,DLD-1,> 50 µM
same,IC50,A549,> 50 µM
same,IC50,[2],> 50 µM
C[C@@H]1O[C@@H](O[C@H]2[C@H](O[C@H]3CC[C@]4(C)[C@H]5CC[C@@H]6[C@H]7[C@H]8OC(=O)[C@@]7(CCC8(C)C)CC[C@@]6(C)[C@]5(C)CC[C@H]4C3(C)C)O[C@H](CO)[C@@H](O[C@@H]3O[C@@H](C)[C@H](O)[C@@H](O)[C@H]3O)[C@@H]2O)[C@H](O)[C@H](O)[C@H]1O,HC50,[1],8 µM
same,IC50,MCF7,18 µM
same,IC50,PC-3,10 µM
same,IC50,DLD-1,14 µM
same,IC50,A549,13 µM
same,IC50,[2],3.8 µM
CC1(C)CC[C@]23CC[C@]4(C)[C@H](CC[C@@H]5[C@@]6(C)CC[C@H](O)C(C)(C)[C@@H]6CC[C@]54C)[C@H]2[C@H]1OC3 [ALLOBETULIN],HC50,[1],> 100 µM
same,IC50,MCF7,> 50 µM
same,IC50,PC-3,> 50 µM
same,IC50,DLD-1,> 50 µM
same,IC50,A549,> 50 µM
same,IC50,[2],> 50 µM
C=C(C)[C@@H]1CC[C@]2(C)CC[C@]3(C)[C@H](CC[C@@H]4[C@@]5(C)CC[C@H](O[C@@H]6O[C@H](CO)[C@@H](O[C@@H]7O[C@@H](C)[C@H](O)[C@@H](O)[C@H]7O)[C@H](O)[C@H]6O[C@@H]6O[C@@H](C)[C@H](O)[C@@H](O)[C@H]6O)C(C)(C)[C@@H]5CC[C@]43C)[C@@H]12,HC50,[1],30 µM
same,IC50,MCF7,> 50 µM
same,IC50,PC-3,> 50 µM
same,IC50,DLD-1,> 50 µM
same,IC50,A549,> 50 µM
same,IC50,[2],> 50 µM
C[C@@H]1O[C@@H](O[C@H]2[C@H](O[C@H]3CC[C@]4(C)[C@H]5CC[C@@H]6[C@H]7[C@H]8OC[C@@]7(CCC8(C)C)CC[C@@]6(C)[C@]5(C)CC[C@H]4C3(C)C)O[C@H](CO)[C@@H](O[C@@H]3O[C@@H](C)[C@H](O)[C@@H](O)[C@H]3O)[C@@H]2O)[C@H](O)[C@H](O)[C@H]1O,HC50,[1],90 µM
same,IC50,MCF7,15 µM
same,IC50,PC-3,13 µM
same,IC50,DLD-1,13 µM
same,IC50,A549,14 µM
same,IC50,[2],9 µM
